Active and inactive are the calls of the source.
Legend:
[1] = Luminescence Cell-Based Dose Retest to Confirm Inhibitors of Cancer Stem Cells. [Related pubchem assays (depositor defined):AID2717, AID2721]; assay type: functional; settings: Homo sapiens
[2] = viability of uninfected HEp-2 cells – cell-based, HTS, cytotoxicity control for RSV inhibitor project, dose response (AID 2410); assay type: functional; settings: human respiratory syncytial virus
Protein skinhead-1 = target: T1, Protein skinhead-1 (Caenorhabditis elegans, UniProt P34707); assay type: functional
T1 sequence (P34707 whole entry): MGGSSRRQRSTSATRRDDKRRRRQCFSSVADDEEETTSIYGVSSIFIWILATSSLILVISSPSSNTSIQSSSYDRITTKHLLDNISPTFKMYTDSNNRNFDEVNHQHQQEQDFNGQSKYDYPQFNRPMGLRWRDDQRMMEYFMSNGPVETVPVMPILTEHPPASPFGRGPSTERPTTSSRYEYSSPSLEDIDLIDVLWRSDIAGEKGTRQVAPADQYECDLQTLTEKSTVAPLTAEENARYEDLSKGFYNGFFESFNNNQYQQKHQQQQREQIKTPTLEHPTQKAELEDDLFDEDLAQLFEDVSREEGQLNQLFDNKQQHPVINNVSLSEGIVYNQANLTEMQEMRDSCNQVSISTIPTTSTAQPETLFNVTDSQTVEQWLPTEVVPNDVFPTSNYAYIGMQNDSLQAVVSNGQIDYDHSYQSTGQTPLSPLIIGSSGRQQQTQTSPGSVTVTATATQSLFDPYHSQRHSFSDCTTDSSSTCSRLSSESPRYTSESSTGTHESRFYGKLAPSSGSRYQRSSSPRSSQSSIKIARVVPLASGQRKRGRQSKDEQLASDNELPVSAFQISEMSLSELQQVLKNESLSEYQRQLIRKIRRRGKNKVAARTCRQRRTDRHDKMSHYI

H9c2 = assay: cells; assay type: functional, cell-based; settings: Rattus norvegicus, H9c2, Myocardium;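 note: confirmatory concentration-response retest of ultra-high-throughput screening hits for modulation of myocardial damage; cell death induced by hydrogen peroxide oxidative stress; compound pretreatment for 60 min then peroxide exposure for 2 h; potency is for protecting the cells against peroxide damage rather than for killing them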
[3] = target: T2, High affinity choline transporter 1 (Homo sapiens, UniProt Q9GZV3); assay: human choline transporter blockers, potency – cell-based, 5-point CRC, membrane potential dye, dose response (AID 504840); assay type: functional
T2 sequence (Q9GZV3 whole entry): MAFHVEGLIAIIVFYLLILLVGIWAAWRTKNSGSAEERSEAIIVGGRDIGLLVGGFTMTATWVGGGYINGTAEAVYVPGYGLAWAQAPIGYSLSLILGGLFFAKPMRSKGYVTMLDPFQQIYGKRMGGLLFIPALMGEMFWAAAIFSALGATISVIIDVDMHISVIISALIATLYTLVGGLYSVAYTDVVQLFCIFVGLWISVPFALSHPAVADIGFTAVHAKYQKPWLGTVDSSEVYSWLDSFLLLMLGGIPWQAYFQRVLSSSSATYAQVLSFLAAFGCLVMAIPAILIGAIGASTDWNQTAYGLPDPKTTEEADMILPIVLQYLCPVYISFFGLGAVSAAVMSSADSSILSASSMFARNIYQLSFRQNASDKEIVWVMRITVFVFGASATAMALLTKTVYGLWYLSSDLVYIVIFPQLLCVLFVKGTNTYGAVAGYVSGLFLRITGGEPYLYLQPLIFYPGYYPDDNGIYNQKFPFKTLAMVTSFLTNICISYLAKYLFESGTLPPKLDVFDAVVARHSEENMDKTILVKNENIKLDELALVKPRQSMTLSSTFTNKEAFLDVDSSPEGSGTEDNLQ

Cytochrome P450 3A4 = Cytochrome P450 3A4 (Homo sapiens, UniProt P08684);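 note: CYP3A4 tested as one member of a cytochrome P450 panel screen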
Chain of Cytochrome P450 3A4 (P08684 whole entry): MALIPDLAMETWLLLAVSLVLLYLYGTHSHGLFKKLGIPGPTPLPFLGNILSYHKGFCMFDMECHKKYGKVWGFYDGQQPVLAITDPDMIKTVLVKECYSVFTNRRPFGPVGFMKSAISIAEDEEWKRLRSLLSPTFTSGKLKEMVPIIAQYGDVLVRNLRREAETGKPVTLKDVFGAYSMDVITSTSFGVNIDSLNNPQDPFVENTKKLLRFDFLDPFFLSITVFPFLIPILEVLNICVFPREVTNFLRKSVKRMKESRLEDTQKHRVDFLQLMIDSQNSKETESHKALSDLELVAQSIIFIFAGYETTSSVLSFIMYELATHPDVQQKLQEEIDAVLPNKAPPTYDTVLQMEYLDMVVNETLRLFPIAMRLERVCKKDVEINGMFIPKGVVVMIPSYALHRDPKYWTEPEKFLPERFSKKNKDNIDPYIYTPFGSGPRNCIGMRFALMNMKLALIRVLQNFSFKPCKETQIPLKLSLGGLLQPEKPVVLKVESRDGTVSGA

Cytochrome P450 2D6 = Cytochrome P450 2D6 (Homo sapiens, UniProt P10635);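 note: CYP2D6 member of a cytochrome P450 panel assay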
Chain of Cytochrome P450 2D6 (P10635 whole entry): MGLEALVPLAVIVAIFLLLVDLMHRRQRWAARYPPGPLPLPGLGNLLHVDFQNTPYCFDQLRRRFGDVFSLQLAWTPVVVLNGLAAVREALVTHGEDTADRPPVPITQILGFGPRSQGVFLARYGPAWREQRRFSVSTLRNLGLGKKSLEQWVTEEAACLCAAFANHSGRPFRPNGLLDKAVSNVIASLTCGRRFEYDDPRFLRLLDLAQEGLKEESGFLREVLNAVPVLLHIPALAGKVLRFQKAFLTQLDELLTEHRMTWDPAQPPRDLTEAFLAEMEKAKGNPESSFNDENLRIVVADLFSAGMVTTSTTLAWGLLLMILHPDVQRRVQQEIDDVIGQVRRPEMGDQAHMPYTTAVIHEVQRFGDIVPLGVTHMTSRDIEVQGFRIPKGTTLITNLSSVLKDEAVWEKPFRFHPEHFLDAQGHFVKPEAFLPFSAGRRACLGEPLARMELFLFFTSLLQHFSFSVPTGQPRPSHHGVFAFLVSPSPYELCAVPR

[4] = target: Luciferin 4-monooxygenase (Photinus pyralis, UniProt P08659); assay: inhibition of purified Photinus pyralis luciferase – biochemical, luminescence, dose response (AID 1891)
Chain of Luciferin 4-monooxygenase (P08659 whole entry): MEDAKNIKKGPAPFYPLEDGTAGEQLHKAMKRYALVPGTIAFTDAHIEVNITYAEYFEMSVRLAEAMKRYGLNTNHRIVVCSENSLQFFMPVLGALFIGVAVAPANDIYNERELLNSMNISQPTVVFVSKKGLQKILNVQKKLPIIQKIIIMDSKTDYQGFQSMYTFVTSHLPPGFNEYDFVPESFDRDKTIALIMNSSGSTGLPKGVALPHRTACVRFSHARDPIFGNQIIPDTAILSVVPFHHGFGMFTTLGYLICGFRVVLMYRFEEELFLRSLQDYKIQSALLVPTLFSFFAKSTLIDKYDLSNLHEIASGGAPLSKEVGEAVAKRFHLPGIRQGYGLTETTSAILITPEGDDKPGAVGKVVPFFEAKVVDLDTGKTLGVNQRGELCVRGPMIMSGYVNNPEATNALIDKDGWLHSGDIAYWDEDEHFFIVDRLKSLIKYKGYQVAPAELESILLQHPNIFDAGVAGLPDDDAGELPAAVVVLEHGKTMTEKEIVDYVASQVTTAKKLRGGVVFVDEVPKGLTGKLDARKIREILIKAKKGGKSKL

[5] = Luminescence Cell-Based Dose Confirmation HTS to Identify Inhibitors of Platelet Dense Granule Release. [Related pubchem assays: 1663 (Primary HTS), 1678 (Summary of Project)]; assay type: functional
INS1 = assay: INS-1E survival protection against cytokine death – cell-based, luminescence, retest, dose response (AID 449756); assay type: functional; settings: Rattus norvegicus;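 note: cell death triggered by IL-1 beta plus TNF-alpha plus IFN-gamma mixture; protective hits raise ATP signal compared with cytokine alone wells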
Protein RecA = target: T3, Protein RecA (Mycobacterium tuberculosis, UniProt P9WHJ3); assay: Fluorescence Cell-Free Homogeneous Dose Retest to Identify Inhibitors of RecA-Intein Splicing Activity. [Related pubchem assays (depositor defined):AID2097, AID2223, AID489010, AID492950]; assay type: functional
T3 sequence (P9WHJ3 whole entry): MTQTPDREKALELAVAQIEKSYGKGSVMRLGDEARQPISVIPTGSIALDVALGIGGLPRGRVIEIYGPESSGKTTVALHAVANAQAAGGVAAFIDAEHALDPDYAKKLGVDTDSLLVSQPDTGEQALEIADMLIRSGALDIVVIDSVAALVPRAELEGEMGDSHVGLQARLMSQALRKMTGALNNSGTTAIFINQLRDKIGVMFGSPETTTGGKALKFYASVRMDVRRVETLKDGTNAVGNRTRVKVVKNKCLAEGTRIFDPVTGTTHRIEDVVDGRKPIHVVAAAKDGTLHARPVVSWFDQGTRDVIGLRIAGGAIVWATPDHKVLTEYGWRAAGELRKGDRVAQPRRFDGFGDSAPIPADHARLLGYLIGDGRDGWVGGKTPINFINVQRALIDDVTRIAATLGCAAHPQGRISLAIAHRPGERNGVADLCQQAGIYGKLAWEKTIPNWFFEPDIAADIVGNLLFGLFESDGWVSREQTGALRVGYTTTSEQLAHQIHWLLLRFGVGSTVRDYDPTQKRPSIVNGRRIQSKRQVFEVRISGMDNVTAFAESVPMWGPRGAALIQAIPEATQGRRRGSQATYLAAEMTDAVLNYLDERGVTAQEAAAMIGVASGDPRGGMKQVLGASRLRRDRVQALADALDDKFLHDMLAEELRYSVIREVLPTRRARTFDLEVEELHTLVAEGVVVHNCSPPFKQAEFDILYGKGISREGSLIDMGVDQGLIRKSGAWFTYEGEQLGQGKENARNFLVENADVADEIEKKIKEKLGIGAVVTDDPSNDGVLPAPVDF

[6] = target: T4, Replicative DNA helicase DnaB (Mycobacterium tuberculosis, UniProt P9WMR3); assay: DnaB intein splicing inhibitors, dose response, biochemical, cell-free fluorescence (AID 449749); assay type: functional
T4 sequence (P9WMR3 whole entry): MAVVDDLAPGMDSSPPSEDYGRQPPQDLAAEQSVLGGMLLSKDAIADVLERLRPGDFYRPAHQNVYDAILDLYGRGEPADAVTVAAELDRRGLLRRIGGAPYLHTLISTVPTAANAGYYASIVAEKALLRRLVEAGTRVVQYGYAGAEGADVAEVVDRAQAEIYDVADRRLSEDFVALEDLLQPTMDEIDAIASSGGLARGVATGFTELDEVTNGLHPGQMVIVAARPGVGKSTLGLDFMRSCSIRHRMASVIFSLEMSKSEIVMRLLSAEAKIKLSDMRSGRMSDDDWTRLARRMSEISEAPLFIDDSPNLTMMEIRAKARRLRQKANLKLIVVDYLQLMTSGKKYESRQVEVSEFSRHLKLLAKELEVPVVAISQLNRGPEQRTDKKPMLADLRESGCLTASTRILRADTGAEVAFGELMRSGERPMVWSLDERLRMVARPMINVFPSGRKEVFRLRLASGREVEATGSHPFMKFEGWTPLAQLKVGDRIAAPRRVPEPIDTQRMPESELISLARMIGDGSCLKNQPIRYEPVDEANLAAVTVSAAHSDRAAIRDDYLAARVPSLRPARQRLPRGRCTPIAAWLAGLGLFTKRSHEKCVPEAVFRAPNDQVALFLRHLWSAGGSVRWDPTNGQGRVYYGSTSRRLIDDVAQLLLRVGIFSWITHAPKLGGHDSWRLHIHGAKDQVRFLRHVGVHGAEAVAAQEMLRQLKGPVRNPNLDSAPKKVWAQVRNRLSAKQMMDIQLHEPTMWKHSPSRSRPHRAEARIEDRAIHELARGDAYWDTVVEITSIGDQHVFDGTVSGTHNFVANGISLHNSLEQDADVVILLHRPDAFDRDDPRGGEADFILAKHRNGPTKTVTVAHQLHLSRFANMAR

[7] = NIH-3T3 fibroblast cytotoxicity, dose response, cytotoxicity control, cell-based, fluorescence, Alamar Blue, secondary assay (AID 2327); assay type: functional;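 note: NIH-3T3 mouse fibroblasts cultured with fluconazole at 8 µg/mL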
[8] = fluconazole-exposed Candida albicans growth modulators – fluorescence, retest, confirmation (AID 2467); assay type: functional, cell-based
[9] = P. falciparum Dd2 growth inhibitors, dose response, SYBR Green, cherry-picked samples (AID 1159567); assay type: functional, cell-based

Compound: O=C(Nc1ccc(NC(=S)NC(=O)c2ccccc2Cl)cc1)c1cccc(Cl)c1
- AC50 [1]: 3.26 µM (active)
- CC50 [2]: > 50 µM (active)

Compound: O=C1C2C(C(=O)N1Cc1cccnc1)C1C=CC2C12CC2 (configuration not stated)
- IC50 (Protein skinhead-1): > 100 µM (inactive)

Compound: COc1ccc(Cl)cc1-c1nc(-c2ccc(NC(=O)c3cccs3)cc2)no1
- IC50 (H9c2): > 79 µM (inactive)
- CC50 [2]: 23.2 µM (active)

Compound: CC1CCN(CC(=O)Nc2cccc(C(=O)Nc3cccc(C(F)(F)F)c3)c2)CC1
- IC50 [3]: 12.3 µM (active)
- IC50 (Protein skinhead-1): 43.2 µM (active)

Compound: FC(F)(F)c1nnc2n1N=C(c1cccs1)CS2
- CC50 [2]: 22.6 µM (active)

Compound: Cc1ccc(C2=NN(S(=O)(=O)c3ccccc3)C(c3ccco3)C2)cc1 (configuration not stated)
- CC50 [2]: 8.13 µM (active)

Compound: Cc1ccccc1OCCCn1c(=O)sc2ccccc21
- AC50 (Cytochrome P450 3A4): 17.8 µM (inconclusive)
- AC50 (Cytochrome P450 2D6): 11.2 µM (inconclusive)
- CC50 [2]: 32.2 µM (active)

Compound: CC1CCN(CC(O)COc2ccc(OCC(O)CN3CCC(C)CC3)cc2)CC1 (configuration not stated)
- IC50 [3]: 12.6 µM (active)

Compound: Cc1ccc(C2CC(=O)Oc3cc(O)ccc32)cc1 (configuration not stated)
- IC50 (Protein skinhead-1): > 100 µM (inactive)

Compound: COc1cccc(NC(=O)c2cnn(-c3ccccc3)c2C)c1
- EC50 [4]: 8.62 µM (active)
- EC50 [5]: 20.2 µM (active)

Compound: CCCc1cc2c(=O)c(-c3cscn3)c(C(=O)OCC)oc2cc1O
- IC50 [3]: 13.8 µM (active)

Compound: Cc1cccc(N2CC(C)Cn3c2nc2c3c(=O)n(CC(=O)OCc3ccccc3)c(=O)n2C)c1 (configuration not stated)
- EC50 [4]: 27.8 µM (active)
- EC50 [5]: > 112 µM (not active)

Compound: Cc1ccc(C)c(OCC(=O)Nc2ccc(S(=O)(=O)Nc3ccccn3)cc2)c1C
- IC50 [3]: 7.2 µM (active)

Compound: CCCN(Cc1nnc(-c2ccccc2Cl)o1)C(=O)c1cc2ccccc2o1
- CC50 [2]: 19.5 µM (active)

Compound: CCCCC1CCC(C(=O)N(CC(C)C)c2c(N)n(Cc3ccccc3)c(=O)[nH]c2=O)CC1 (configuration not stated)
- AC50 (INS1): 5.82 µM (active)
- AC50 [1]: 2.96 µM (active)

Compound: CCCCOc1ccc2c(c1)C(=O)c1cc(O)ccc1-2
- CC50 [2]: 11.7 µM (active)

Compound: COc1cccc(C(=O)Nc2ccc(C3CC3(Cl)Cl)cc2)c1 (configuration not stated)
- AC50 [1]: 3.15 µM (active)

Compound: CC1CCCCC1N1CN=C(Nc2nc3ccccc3s2)NC1 (configuration not stated)
- IC50 (Protein skinhead-1): > 100 µM (inactive)

Compound: O=C1/C(=C/c2cccs2)CCC1C1CCCC1 (configuration not stated)
- IC50 (Protein skinhead-1): > 100 µM (inactive)

Compound: O=C(Nc1ccc2[nH]c(-c3ccccc3)nc2c1)c1cccs1
- IC50 (Protein skinhead-1): > 100 µM (inactive)

Compound: CC1(C)Cc2ccccc2C(CSc2ccccc2C(=O)O)=N1
- AC50 [1]: 4.98 µM (active)

Compound: Cc1ccc(C)c(N2CCN(S(=O)(=O)c3ccc4c(c3)OCCO4)CC2)c1
- EC50 [4]: > 112 µM (not active)
- EC50 [5]: > 112 µM (not active)

Compound: COCC(=O)Nc1sc2c(c1C(=O)OC)CCCC2
- IC50 (Protein skinhead-1): > 100 µM (inactive)

Compound: COc1cc2cnc(-c3ccccc3)c(-c3cccc(C(F)(F)F)c3)c2cc1OC
- AC50 [1]: 4.47 µM (active)

Compound: Cc1cnc(NC(=O)CC(C)c2ccccc2)s1 (configuration not stated)
- IC50 (Protein skinhead-1): > 100 µM (inactive)

Compound: CCOC(=O)c1cccc(Nc2ncnc3ccccc23)c1
- IC50 [3]: 14.5 µM (active)

Compound: COC(=O)c1oc2ccc(Cl)cc2c1-n1cccc1
- IC50 (Protein skinhead-1): > 100 µM (inactive)

Compound: Clc1ccc(C=Cc2ccccn2)cc1
- IC50 (Protein skinhead-1): 5.71 µM (active)

Compound: O=c1c2ccccc2nc(SCc2ccncc2)n1CC1CCCO1 (configuration not stated)
- IC50 [3]: 12.9 µM (active)

Compound: C/C(=N\NC(=O)C(C)n1nc(C)c([N+](=O)[O-])c1C)c1ccccc1O (configuration not stated)
- AC50 (INS1): 1.93 µM (active)

Compound: O=c1cc(-c2ccccc2)[nH]n1-c1ccc([N+](=O)[O-])cc1
- EC50 (Protein RecA): 11 µM (active)
- AC50 [6]: 3.09 µM (active)
- AC50 [1]: 4.13 µM (active)

Compound: COc1ccc(C/C(O)=C(\C#N)c2nc3ccccc3s2)cc1
- EC50 [7]: 39.5 µM (active)
- IC50 [3]: 0.724 µM (active)
- EC50 [8]: 0.405 µM (active)

Compound: CCn1/c(=N/C(=O)c2ccc(S(=O)(=O)N3CCOCC3)cc2)sc2cccc(OC)c21
- AC50 (INS1): 5.66 µM (active)

Compound: COc1cccc(-c2ccc3c(c2)[C@@H]2[C@@H](CCN2S(=O)(=O)c2cn(C)cn2)[C@@H](CO)N3)c1
- AC50 [9]: 9.63 µM (active)

Compound: C[C@@H]1CN([C@H](C)CO)S(=O)(=O)c2ccc(C3=CCCCC3)cc2O[C@H]1CN(C)C(=O)Cc1ccncc1
- AC50 [9]: 3.22 µM (active)

Compound: C[C@@H]1CN([C@@H](C)CO)C(=O)Cc2cc(NC(=O)Nc3ccccc3)ccc2O[C@H]1CN(C)CC1CC1
- AC50 [9]: 8.09 µM (active)

Compound: O=C(c1ccccn1)N1CC2(C1)[C@@H](c1ccccc1)[C@H](CO)N2Cc1ccc(Cl)cc1
- AC50 [9]: 4.6 µM (active)

Compound: COc1ccc(NC(=O)N2CCC3(CC2)CN(C(=O)C2CCC2)[C@@H](CO)c2c3c3ccc(OC)cc3n2C)cc1
- AC50 [9]: 6.04 µM (active)

Compound: CCC(=O)N1CC2(C1)[C@H](c1ccccc1)[C@H](CO)N2Cc1ccccc1OC
- AC50 [9]: 8.35 µM (active)
